# Experimental data reported in patent publication US20100248229A1, “INVITRO HUMAN EMBRYONIC MODEL AND A METHOD THEREOF” (Stempeutics Research Private Limited, priority 2007, published 2010).
# How the values were obtained:
# hESCs (EB formation) = assay: Effect on the formation of EBs from hESCs; format: cell-based, human; conditions: 10 pg/ml and above
# Description: Human Embryonic Stem Cells (hESCs) cultured on feeder cells of mouse or human origin, or cultured in feeder free conditions were exposed to several different dilutions of the drug for 6 days and subjected to Embryoid Body (EB) formation on non adherent plates, in presence of the drug for another 4 days. The control set was free from any extraneous addition of drugs. The formation of normal EBs in the control was evaluated by testing the expression of all the germ lineage, pluripotency and epigenomic markers as given in table Nos. 1-7 by RT-PCR, Flow Cytometry and Immunofluorescence. Alteration in the expression profiles of these genes in the treated EBs indicated a detrimental effect on embryonic development. A failure to form nicely cavitating EBs, as observed under the microscope, or a delay in the formation of the EBs as compared to the control indicated a possible embryo toxic effect of the drug.
# The effect of molecules/compounds was screened. The compound, such as Rho Kinases inhibitor Y27632, 5-Azacytidine, and gram negative bacterial endotoxin lipopolysaccharide (LPS) on the formation of EBs from hESCs were screened for their toxic activity. LPS is known to be involved in genital tract infection related pathogenesis and pregnancy losses.
# [1] = system: EBs derived from hESC line HUES9; assay: Morphology of EBs under the microscope; format: cell-based, human; conditions: 12.5 pg/ml for 48 hrs, day 4.5
# Excerpt: Exposure of EBs to LPS: EBs at day-2.5 were exposed to 12.5 pg/ml of Endotoxin/lipopolysaccharide (LPS) (Sigma) for 48 hrs supplemented in culture medium. The normal and the endotoxin treated EBs were harvested on day 4.5. Post exposure, the control and endotoxin treated EBs were divided in two groups. One group was lysed in TRIZOL for RNA isolation and the other group was fixed in 4% paraformaldehyde for immunofluorescence. The expression profile of the ectoderm, endoderm, mesoderm and trophectoderm lineage markers like PHI-tubulin, GATA4, BMP2, Brachury and β-hCG etc. were studied by RT-PCR and Immunofluorescence. The expression of the LPS-inducible and pluripotency related DNA binding protein HMGB1 was also studied in both the control and treated EBs.
# The HUES9 cells were harvested on day 5 and used for induction of EBs. The control EBs were collected on day 4.5 of culture (FIG. 4b). The LPS treated EBs were also collected on day 4.5 and were compared with the normal for morphological changes under the microscope (FIG. 4c). […] The normal and LPS treated EBs were screened for pluripotency and the germ lineage markers. […] HMGB1 mRNA expression was not found in the normal EBs (FIG. 5). […] Immunofluorescence localization of HMGB1 and the mesoderm marker Brachury was done to check the protein expressions. […]
# EBs = assay: Methylation specific PCR (MSP) and mRNA expression of epigenetically regulated genes in EBs; format: cell-based, human; conditions: 48 hrs, 5 ug/ml
# Excerpt: Methylation status of several of the epigenetically regulated genes and the imprinted genes in response to exposure to various compounds/drugs or biologicals were screened.
# [2] = system: hematopoietic precursor cells; conditions: report [21]; cited from earlier work
substance,measurement,setting,value
lipopolysaccharide [LPS],EB formation from hESCs,hESCs (EB formation),complete inhibition of EB formation
same,"morphology (shape, size or numbers) of treated vs normal EBs",[1],did not show any visible morphological differences
same,"mRNA expression of SDHD, DYPS and CDH1",EBs; control EBs positive,negative mRNA expression/silencing
same,"methylation status of SDHD, DYPS and CDH1 (MSP after bisulphite treatment)",EBs; control: one of the alleles methylated,both the alleles of these genes were methylated
same,concentration enough to cause alterations in the proliferation of hematopoietic precursor cells in culture,[2],2 to 5 pg/mL
